The text below walks through data of patent US20240043420A1, “7-AZAINDOLE COMPOUNDS FOR INHIBITION OF BCR-ABL TYROSINE KINASES” (EnLiven Therapeutics, Inc., priority 2020, published 2024).

In one test the test system is K562 cells. Put plainly: K562 cell proliferation assay (CellTiter-Glo). It is filed as cell-based. The note with it: CellTiter-Glo viability, read-out: Cell Line (IC50, nM) K562. As for the experimental part: (§1) K562 and HL60 cells, cultured in Iscove's Modified Dulbecco's Media (IMDM) supplemented with 10% FBS, were harvested at 50-80% confluency and plated at 2,000 cells per well (K562) or 1,500 cells per well (HL60) in 384-well tissue culture plates. A subset of wells contained media only (low control, LC). Compounds were serially diluted in DMSO. 40 nL of compound or DMSO only (high control, HC) were added to each well using an Echo 550 liquid handler (Labcyte). The plates were placed in a 37° C. incubator with 5% CO2 for 72 hours. Cell viability was measured using a CellTiter-Glo luminescent cell viability assay (Promega), which allows for relative quantification of metabolically active cells by luminescence-based measurements of intracellular ATP concentrations. Briefly, plates were removed from the incubator and equilibrated for 15 minutes at room temperature prior to the addition of 40 μL of CellTiter-Glo reagent. Plates were then incubated for 30 minutes at room temperature. Luminescence was measured using an EnSpire plate reader (Perkin Elmer). As noted above, luminescence values from wells with DMSO only or media without cells were used as high and low controls (HC and LC), respectively. Normalized percent viability was calculated as follows: percent viability=100×(Lumsample−LumLC)/(LumHC−LumLC).
(In general: Cellular ATP, detected with luciferase, serves as a proxy for viable cell number.)

The next test relates to HL60 cells. The test is described as follows: HL60 cell proliferation assay (CellTiter-Glo). The class given is cell-based. The conditions noted are these: CellTiter-Glo viability, read-out: Cell Line (IC50, nM) HL60. The procedure: as §1
For another test, the target named is T1, ABL1 (Homo sapiens, UniProt P00519).
T1 construct: purchased Carna Biosciences
The test is described as follows: Luminescence-based ABL kinase assay (ADP-Glo, 300 μM ATP). The class given is biochemical. As for the experimental part: (§2) Kinase activity of ABL1 was measured using the ADP-Glo system (Promega), which measures formation of ADP using a luminescence-based method. Compounds were serially diluted in DMSO. 20 nL of compound or DMSO only (high control, HC) were added to a 384-well plate (OptiPlate-384, PerkinElmer) using an Echo550 liquid handler (Labcyte). 15 μL of kinase solution (10 mM MgCl2, 0.01% Brij-35, 2 mM DTT, 0.05% BSA, 1 mM EGTA, 50 mM HEPES pH 7.5, and 3.325 nM ABL1 [Carna Biosciences]) were added to each well of the 384-well plate containing the compounds. No enzyme control wells were included (low control, LC). The plate was incubated at room temperature for 30 minutes. 5 μL of a second solution containing 10 mM MgCl2, 0.01% Brij-35, 2 mM DTT, 0.05% BSA, 1 mM EGTA, 50 mM HEPES pH 7.5, 6 μM Peptide 2 (Perkin Elmer, Cat No 760346), and 1.2 mM ATP were added to each well to start the kinase reaction. The plate was incubated for 90 minutes at room temperature. 20 μL of ADP-Glo reagent (Promega) were then added to each well and the plate was incubated for 40 minutes at room temperature. 40 μL of kinase detection reagent (Promega) was added to each well and the plate was incubated for an additional 45 minutes at room temperature. During this step, ADP was converted to ATP, a substrate for luciferase, to produce luminescence signal. Luminescence was measured on an Envision plate reader (Perkin Elmer). Luminescence signal positively correlates with kinase activity. The percent kinase activity was calculated as follows: percent kinase activity=100×(Lumsample−LumLC)/(LumHC−LumLC). As noted above, DMSO only and no enzyme wells were used as high and low controls, respectively. IC50 values were calculated using the XLFit software.
For orientation: In ADP-Glo the light output rises with the ADP produced.

The target of a further test is ABL1 (T315I) (Homo sapiens, UniProt P00519, T315I). Put plainly: Luminescence-based ABL kinase assay (ADP-Glo, 300 μM ATP), T315I mutant. The class given is biochemical. As for the experimental part:
as §2

Read-outs that look alike come from different tables or passages of the source.

On to `COc1ccccc1-c1c[nH]c2nc(NC(=O)[C@@H]3C[C@@H]3CN3CCN(C)CC3)ccc12` (racemic) [Compound 41, cis-N-[3-(2-methoxyphenyl)-1H-pyrrolo[2,3-b]pyridin-6-yl]-2-[(4-methylpiperazin-1-yl)methyl]cyclopropane-1-carboxamide], for which the 50% inhibitory concentration (IC50) in the test on K562 cells (Homo sapiens, K562, 72 h) is 654 nM; with HL60 cells (Homo sapiens, HL-60, 72 h), above 10000 nM; against ABL1 it was 106 nM; on ABL1 (T315I), 26.8 nM.

Regarding `COc1ccccc1-c1c[nH]c2nc(NC(=O)[C@@H]3C[C@@H]3CCO)ccc12` (relative stereo) [Compound 105, cis-2-(2-hydroxyethyl)-N-(3-(2-methoxyphenyl)-1H-pyrrolo[2,3-b]pyridin-6-yl)cyclopropanecarboxamide], the IC50 in the test on K562 cells (Homo sapiens, K562, 72 h) is 489 nM; in the test on HL60 cells (Homo sapiens, HL-60, 72 h), above 10000 nM; at ABL1, 109 nM; against ABL1 (T315I) it was 19.9 nM.

As to `COc1ccccc1-c1c[nH]c2nc(NC(=O)[C@H]3C[C@H]3C#N)ccc12` (relative stereo) [Compound 106, cis-2-cyano-N-[3-(2-methoxyphenyl)-1H-pyrrolo[2,3-b]pyridin-6-yl]cyclopropane-1-carboxamide], the 50% inhibitory concentration (IC50) is 275 nM in the test with K562 cells (Homo sapiens, K562, 72 h); above 10000 nM with HL60 cells (Homo sapiens, HL-60, 72 h); 78.1 nM against ABL1; 26.1 nM against ABL1 (T315I).

On to `COc1ccccc1-c1c[nH]c2nc(NC(=O)[C@H]3C[C@@H]3CO)ccc12` (relative stereo) [Compound 108, trans-2-(hydroxymethyl)-N-(3-(2-methoxyphenyl)-1H-pyrrolo[2,3-b]pyridin-6-yl)cyclopropane-1-carboxamide], for which the IC50 in the test with K562 cells (Homo sapiens, K562, 72 h) was 419 nM; in the test on HL60 cells (Homo sapiens, HL-60, 72 h), above 10000 nM; against ABL1 it was 78.6 nM; at ABL1 (T315I), 17.8 nM.

For `COc1cccc(OC)c1-c1c[nH]c2nc(NC(=O)C3CC3CCN(C)C)ccc12` (single isomer, unassigned) [Example S205, Enantiomer 1, N-(3-(2,6-dimethoxyphenyl)-1H-pyrrolo[2,3-b]pyridin-6-yl)-2-(2-(dimethylamino)ethyl)cyclopropane-1-carboxamide], the concentration for half-maximal inhibition (IC50) in the test with K562 cells (72 hours) was 21.5 nM; against ABL1, 10.6 nM; on ABL1 (T315I) it was 15 nM.

For `COc1cccc(OC)c1-c1c[nH]c2nc(NC(=O)C3CC3CCN(C)C)ccc12` (single isomer, unassigned) [Example S205, Enantiomer 2, N-(3-(2,6-dimethoxyphenyl)-1H-pyrrolo[2,3-b]pyridin-6-yl)-2-(2-(dimethylamino)ethyl)cyclopropane-1-carboxamide], the results for the concentration for half-maximal inhibition (IC50) in the test with K562 cells (72 hours), against ABL1 and on ABL1 (T315I) were 55.3 nM, 15 nM and 20.9 nM, respectively.

As for `COc1nccc(OC2CC2)c1-c1c[nH]c2nc(NC(=O)C3CC3OCCN(C)C)ccc12` (single isomer, unassigned) [Example S220, Enantiomer 1, N-(3-(4-cyclopropoxy-2-methoxypyridin-3-yl)-1H-pyrrolo[2,3-b]pyridin-6-yl)-2-(2-(dimethylamino)ethoxy)cyclopropane-1-carboxamide], the IC50 in the test on K562 cells (72 hours) was 24.9 nM; with HL60 cells (Homo sapiens, HL-60, 72 h), above 10000 nM.

On to `COc1nccc(OC2CC2)c1-c1c[nH]c2nc(NC(=O)C3CC3OCCN(C)C)ccc12` (single isomer, unassigned) [Example S220, Enantiomer 2, N-(3-(4-cyclopropoxy-2-methoxypyridin-3-yl)-1H-pyrrolo[2,3-b]pyridin-6-yl)-2-(2-(dimethylamino)ethoxy)cyclopropane-1-carboxamide], for which the IC50 is 57.3 nM in the test with K562 cells (72 hours) and above 10000 nM in the test with HL60 cells (72 hours).

With `COc1nccc(OC2CC2)c1-c1c[nH]c2nc(NC(=O)C3CC3OCCN3CCC3)ccc12` (single isomer, unassigned) [Example S221, Enantiomer 1, 2-(2-(azetidin-1-yl)ethoxy)-N-(3-(4-cyclopropoxy-2-methoxypyridin-3-yl)-1H-pyrrolo[2,3-b]pyridin-6-yl)cyclopropane-1-carboxamide], the IC50 was 11.1 nM with K562 cells (72 hours) and 6590 nM with HL60 cells (Homo sapiens, HL-60, 72 h).

With `COc1nccc(OC2CC2)c1-c1c[nH]c2nc(NC(=O)C3CC3OCCN3CCC3)ccc12` (single isomer, unassigned) [Example S221, Enantiomer 2, 2-(2-(azetidin-1-yl)ethoxy)-N-(3-(4-cyclopropoxy-2-methoxypyridin-3-yl)-1H-pyrrolo[2,3-b]pyridin-6-yl)cyclopropane-1-carboxamide], the half-maximal inhibitory concentration (IC50) in the test with K562 cells (72 hours) came to 39.7 nM; in the test on HL60 cells (72 hours), 8660 nM.

For the molecule `COc1ccccc1-c1c[nH]c2nc(NC(=O)C3CC3)ccc12` [Compound 1, N-(3-(2-methoxyphenyl)-1H-pyrrolo[2,3-b]pyridin-6-yl)cyclopropanecarboxamide], the IC50 with K562 cells (Homo sapiens, K562, 72 h) is 101 nM; in the test on HL60 cells (Homo sapiens, HL-60, 72 h), above 10000 nM; against ABL1, 37.9 nM; against ABL1 (T315I) it was 11.3 nM.

For `COc1ccccc1-c1c[nH]c2nc(NC(=O)[C@H]3C[C@H]3F)ccc12` [Compound 2, (1R,2R)-2-fluoro-N-(3-(2-methoxyphenyl)-1H-pyrrolo[2,3-b]pyridin-6-yl)cyclopropane-1-carboxamide], the half-inhibitory concentration (IC50) is 176 nM in the test with K562 cells (Homo sapiens, K562, 72 h); above 10000 nM in the test on HL60 cells (Homo sapiens, HL-60, 72 h); 22.2 nM on ABL1; 9.96 nM on ABL1 (T315I).

As to `Cc1ccccc1-c1c[nH]c2nc(NC(=O)C3CC3)ccc12` [Compound 4, N-[3-(2-methylphenyl)-1H-pyrrolo[2,3-b]pyridin-6-yl]cyclopropanecarboxamide], the IC50 with K562 cells (Homo sapiens, K562, 72 h) is 223 nM; in the test on HL60 cells (Homo sapiens, HL-60, 72 h), above 10000 nM; at ABL1, 113 nM; at ABL1 (T315I) it was 32.3 nM.

In the case of `O=C(Nc1ccc2c(-c3ccccc3F)c[nH]c2n1)C1CC1` [Compound 5, N-[3-(2-fluorophenyl)-1H-pyrrolo[2,3-b]pyridin-6-yl]cyclopropanecarboxamide], the IC50 in the test with K562 cells (Homo sapiens, K562, 72 h) was 713 nM; with HL60 cells (Homo sapiens, HL-60, 72 h) it was above 10000 nM; on ABL1, 119 nM; against ABL1 (T315I) it was 32.9 nM.

For `O=C(Nc1ccc2c(-c3ccccc3Cl)c[nH]c2n1)C1CC1` [Compound 6, N-[3-(2-chlorophenyl)-1H-pyrrolo[2,3-b]pyridin-6-yl]cyclopropanecarboxamide], the half-inhibitory concentration (IC50) was 452 nM in the test on K562 cells (Homo sapiens, K562, 72 h); above 10000 nM in the test on HL60 cells (Homo sapiens, HL-60, 72 h); 123 nM against ABL1; 65.6 nM at ABL1 (T315I).

`O=C(Nc1ccc2c(-c3cccc(O)c3)c[nH]c2n1)C1CC1` [Compound 13, N-[3-(3-hydroxyphenyl)-1H-pyrrolo[2,3-b]pyridin-6-yl]cyclopropanecarboxamide]: the half-inhibitory concentration (IC50) stood at 202 nM in the test with K562 cells (Homo sapiens, K562, 72 h); 4450 nM with HL60 cells (Homo sapiens, HL-60, 72 h); 96.6 nM on ABL1; 9.74 nM on ABL1 (T315I).

With `COc1ncccc1-c1c[nH]c2nc(NC(=O)C3CC3)ccc12` [Compound 14, N-[3-(2-methoxypyridin-3-yl)-1H-pyrrolo[2,3-b]pyridin-6-yl]cyclopropanecarboxamide], the IC50 in the test with K562 cells (Homo sapiens, K562, 72 h) is 416 nM; with HL60 cells (Homo sapiens, HL-60, 72 h) it was above 10000 nM; against ABL1, 91.2 nM; at ABL1 (T315I), 52.8 nM.

Turning to `COc1cccc(OC)c1-c1c[nH]c2nc(NC(=O)C3CC3)ccc12` [Compound 45, N-[3-(2,6-dimethoxyphenyl)-1H-pyrrolo[2,3-b]pyridin-6-yl]cyclopropanecarboxamide], the IC50 is 52.7 nM with K562 cells (Homo sapiens, K562, 72 h) and above 10000 nM in the test with HL60 cells (Homo sapiens, HL-60, 72 h).

On to `COc1nc2[nH]ncc2cc1-c1c[nH]c2nc(NC(=O)[C@@H]3C[C@@H]3F)ccc12` [Compound 144, (1S,2S)-2-fluoro-N-(3-[6-methoxy-1H-pyrazolo[3,4-b]pyridin-5-yl]-1H-pyrrolo[2,3-b]pyridin-6-yl)cyclopropane-1-carboxamide], for which the IC50 in the test with K562 cells (Homo sapiens, K562, 72 h) is 32 nM; in the test on HL60 cells (Homo sapiens, HL-60, 72 h) it was above 10000 nM.

One may read the IC50 as the midpoint of a concentration-inhibition curve.
